The kinase profiling compilation of Christmann-Franck et al. (2016)

Legend:
Assay in all cases: radiometric filter-binding kinase assay, Kinase HotSpot
Details in all cases: compound 0.5 µM; ATP 10 µM
AKT1 (human) = AKT1 (human) (UniProt P31749)
CAMK1 (human) = CAMK1 (human) (UniProt Q14012)
CAMK1D (human) = CAMK1D (human) (UniProt Q8IU85)
CAMK2A (human) = CAMK2A (human) (UniProt Q9UQM7)
CAMK2B (human) = CAMK2B (human) (UniProt Q13554)
CDC42BPA (human) = CDC42BPA (human) (UniProt Q5VT25)
CDK1 CCNB1 (human) = CDK1 CCNB1 (human) (UniProt P06493+P14635)
CDK2 CCNA2 (human) = CDK2 CCNA2 (human) (UniProt P24941+P20248)
CSNK1E (human) = CSNK1E (human) (UniProt P49674)
CSNK1G2 (human) = CSNK1G2 (human) (UniProt P78368)
CSNK2A1 (human) = CSNK2A1 (human) (UniProt P68400)
EPHA5 (human) = EPHA5 (human) (UniProt P54756)
EPHA7 (human) = EPHA7 (human) (UniProt Q15375)
EPHB1 (human) = EPHB1 (human) (UniProt P54762)
FES (human) = FES (human) (UniProt P07332)
FGFR1 (human) = FGFR1 (human) (UniProt P11362)
FGFR4 (human) = FGFR4 (human) (UniProt P22455)
GRK5 (human) = GRK5 (human) (UniProt P34947)
IGF1R (human) = IGF1R (human) (UniProt P08069)
INSR (human) = INSR (human) (UniProt P06213)
INSRR (human) = INSRR (human) (UniProt P14616)
MAP3K10 (human) = MAP3K10 (human) (UniProt Q02779)
MAP3K8 (human) = MAP3K8 (human) (UniProt P41279)
MAPK12 (human) = MAPK12 (human) (UniProt P53778)
MAPK8 (human) = MAPK8 (human) (UniProt P45983)
MAPKAPK3 (human) = MAPKAPK3 (human) (UniProt Q16644)
MATK (human) = MATK (human) (UniProt P42679)
PAK2 (human) = PAK2 (human) (UniProt Q13177)
PIM3 (human) = PIM3 (human) (UniProt Q86V86)
PKN1 (human) = PKN1 (human) (UniProt Q16512)
PLK2 (human) = PLK2 (human) (UniProt Q9NYY3)
PRKCG (human) = PRKCG (human) (UniProt P05129)
RPS6KA4 KD2 (human) = RPS6KA4 KD2 (human) (UniProt O75676)
SRPK3 (human) = SRPK3 (human) (UniProt Q9UPE1)
STK11 (human) = STK11 (human) (UniProt Q15831)
TAOK1 (human) = TAOK1 (human) (UniProt Q7L7X3)
TAOK3 (human) = TAOK3 (human) (UniProt Q9H2K8)
TNK2 (human) = TNK2 (human) (UniProt Q07912)
[1] = target: TYK2 JH1 catalytic (human) (UniProt P29597)
WNK3 (human) = WNK3 (human) (UniProt Q9BYP7)
ZAP70 (human) = ZAP70 (human) (UniProt P43403)
EPHB4 (human) = EPHB4 (human) (UniProt P54760)

Sequence of STK11 (human) (Q15831 whole entry, looked up): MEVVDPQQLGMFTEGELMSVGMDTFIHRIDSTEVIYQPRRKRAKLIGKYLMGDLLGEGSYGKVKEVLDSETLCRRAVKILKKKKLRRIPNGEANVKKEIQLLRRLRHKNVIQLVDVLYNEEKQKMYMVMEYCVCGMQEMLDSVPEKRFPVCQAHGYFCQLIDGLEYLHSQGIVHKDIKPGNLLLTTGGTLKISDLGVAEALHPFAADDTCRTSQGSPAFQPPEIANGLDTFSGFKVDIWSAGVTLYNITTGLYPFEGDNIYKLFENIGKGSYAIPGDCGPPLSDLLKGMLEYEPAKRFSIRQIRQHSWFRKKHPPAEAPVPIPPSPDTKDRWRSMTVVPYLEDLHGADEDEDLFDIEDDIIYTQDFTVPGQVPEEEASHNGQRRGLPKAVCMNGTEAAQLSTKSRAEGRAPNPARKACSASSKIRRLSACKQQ
Sequence of PKN1 (human) (Q16512 whole entry, looked up): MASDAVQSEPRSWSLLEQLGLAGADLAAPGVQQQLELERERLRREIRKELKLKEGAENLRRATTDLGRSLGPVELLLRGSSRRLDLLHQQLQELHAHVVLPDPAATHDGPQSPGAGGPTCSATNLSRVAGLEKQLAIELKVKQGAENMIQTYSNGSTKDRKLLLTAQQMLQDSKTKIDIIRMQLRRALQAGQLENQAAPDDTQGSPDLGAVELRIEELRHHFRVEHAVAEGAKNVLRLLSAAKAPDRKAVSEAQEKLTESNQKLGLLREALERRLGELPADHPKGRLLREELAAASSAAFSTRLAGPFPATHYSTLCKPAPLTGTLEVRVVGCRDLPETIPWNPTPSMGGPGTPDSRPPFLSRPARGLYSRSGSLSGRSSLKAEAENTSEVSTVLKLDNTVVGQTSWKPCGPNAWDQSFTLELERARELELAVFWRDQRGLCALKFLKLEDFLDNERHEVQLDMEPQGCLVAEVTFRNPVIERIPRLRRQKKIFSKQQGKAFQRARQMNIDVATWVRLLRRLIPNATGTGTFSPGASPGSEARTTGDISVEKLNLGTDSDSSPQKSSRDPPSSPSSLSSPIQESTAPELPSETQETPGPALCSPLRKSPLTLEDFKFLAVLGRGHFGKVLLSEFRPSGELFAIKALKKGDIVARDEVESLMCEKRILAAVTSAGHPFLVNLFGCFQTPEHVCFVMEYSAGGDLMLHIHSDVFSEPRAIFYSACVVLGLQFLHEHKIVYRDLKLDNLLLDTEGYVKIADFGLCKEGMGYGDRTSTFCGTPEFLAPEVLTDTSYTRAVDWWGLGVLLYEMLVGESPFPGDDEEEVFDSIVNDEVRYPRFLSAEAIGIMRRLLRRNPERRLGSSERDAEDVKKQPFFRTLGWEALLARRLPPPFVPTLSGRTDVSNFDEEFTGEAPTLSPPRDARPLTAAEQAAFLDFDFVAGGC
Sequence of CSNK1G2 (human) (P78368 whole entry, looked up): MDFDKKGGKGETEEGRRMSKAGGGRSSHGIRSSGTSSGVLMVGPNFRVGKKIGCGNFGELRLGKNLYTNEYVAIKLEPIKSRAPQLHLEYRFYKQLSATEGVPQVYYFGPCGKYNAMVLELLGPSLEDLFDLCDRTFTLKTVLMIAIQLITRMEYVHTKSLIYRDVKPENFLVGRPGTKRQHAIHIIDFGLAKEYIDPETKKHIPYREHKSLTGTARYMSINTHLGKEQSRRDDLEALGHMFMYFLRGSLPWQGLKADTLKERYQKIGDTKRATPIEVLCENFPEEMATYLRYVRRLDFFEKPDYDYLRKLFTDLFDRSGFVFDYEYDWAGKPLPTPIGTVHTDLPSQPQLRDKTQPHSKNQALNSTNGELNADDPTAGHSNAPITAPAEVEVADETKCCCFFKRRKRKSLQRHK
Sequence of CAMK2B (human) (Q13554 whole entry, looked up): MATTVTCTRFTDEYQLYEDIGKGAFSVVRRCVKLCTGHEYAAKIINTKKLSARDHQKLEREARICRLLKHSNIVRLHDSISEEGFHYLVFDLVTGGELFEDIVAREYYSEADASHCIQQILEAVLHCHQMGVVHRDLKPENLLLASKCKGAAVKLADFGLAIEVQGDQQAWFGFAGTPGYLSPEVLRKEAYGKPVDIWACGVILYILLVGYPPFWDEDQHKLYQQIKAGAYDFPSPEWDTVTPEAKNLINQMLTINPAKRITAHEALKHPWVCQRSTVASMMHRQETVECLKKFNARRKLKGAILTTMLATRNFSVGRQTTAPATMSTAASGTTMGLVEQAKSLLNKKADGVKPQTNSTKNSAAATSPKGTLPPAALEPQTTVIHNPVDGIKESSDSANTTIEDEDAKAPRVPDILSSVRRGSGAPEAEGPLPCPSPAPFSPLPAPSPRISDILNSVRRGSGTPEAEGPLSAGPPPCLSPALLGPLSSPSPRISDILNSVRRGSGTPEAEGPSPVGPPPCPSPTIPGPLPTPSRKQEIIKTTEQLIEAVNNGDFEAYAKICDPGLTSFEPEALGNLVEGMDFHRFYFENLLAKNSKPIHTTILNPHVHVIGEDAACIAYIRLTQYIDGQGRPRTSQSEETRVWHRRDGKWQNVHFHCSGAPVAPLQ
Sequence of TYK2 JH1 catalytic (human) (P29597 whole entry, looked up): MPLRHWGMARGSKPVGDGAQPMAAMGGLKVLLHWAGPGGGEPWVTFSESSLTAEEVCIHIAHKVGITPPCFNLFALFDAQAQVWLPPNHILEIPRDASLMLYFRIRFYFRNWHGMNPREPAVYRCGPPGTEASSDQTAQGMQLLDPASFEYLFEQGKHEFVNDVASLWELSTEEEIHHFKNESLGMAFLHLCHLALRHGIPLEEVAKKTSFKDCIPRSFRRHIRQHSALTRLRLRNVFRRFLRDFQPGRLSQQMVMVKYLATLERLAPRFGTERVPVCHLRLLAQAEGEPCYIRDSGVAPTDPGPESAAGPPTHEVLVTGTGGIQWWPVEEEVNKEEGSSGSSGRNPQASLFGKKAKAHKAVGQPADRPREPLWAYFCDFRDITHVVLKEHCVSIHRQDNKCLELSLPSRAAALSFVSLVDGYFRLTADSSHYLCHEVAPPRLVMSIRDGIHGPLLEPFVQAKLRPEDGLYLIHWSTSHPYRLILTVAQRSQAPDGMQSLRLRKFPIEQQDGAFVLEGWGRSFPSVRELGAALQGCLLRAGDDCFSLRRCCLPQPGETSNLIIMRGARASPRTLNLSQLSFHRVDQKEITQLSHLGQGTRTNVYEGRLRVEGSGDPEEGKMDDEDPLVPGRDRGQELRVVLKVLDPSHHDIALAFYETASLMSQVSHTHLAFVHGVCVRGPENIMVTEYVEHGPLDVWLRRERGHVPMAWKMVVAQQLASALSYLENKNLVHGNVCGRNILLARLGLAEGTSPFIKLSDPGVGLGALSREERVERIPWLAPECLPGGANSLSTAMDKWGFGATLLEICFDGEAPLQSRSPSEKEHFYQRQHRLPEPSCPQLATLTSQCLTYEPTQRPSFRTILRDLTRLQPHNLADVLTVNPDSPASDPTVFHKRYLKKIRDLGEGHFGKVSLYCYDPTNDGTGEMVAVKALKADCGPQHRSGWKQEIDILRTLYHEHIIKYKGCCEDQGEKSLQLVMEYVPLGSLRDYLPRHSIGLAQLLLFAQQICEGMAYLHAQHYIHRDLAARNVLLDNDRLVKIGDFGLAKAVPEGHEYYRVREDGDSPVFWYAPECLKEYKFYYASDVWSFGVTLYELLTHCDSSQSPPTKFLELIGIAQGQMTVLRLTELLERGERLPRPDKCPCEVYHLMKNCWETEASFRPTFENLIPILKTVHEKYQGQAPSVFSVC
Sequence of TNK2 (human) (Q07912 whole entry, looked up): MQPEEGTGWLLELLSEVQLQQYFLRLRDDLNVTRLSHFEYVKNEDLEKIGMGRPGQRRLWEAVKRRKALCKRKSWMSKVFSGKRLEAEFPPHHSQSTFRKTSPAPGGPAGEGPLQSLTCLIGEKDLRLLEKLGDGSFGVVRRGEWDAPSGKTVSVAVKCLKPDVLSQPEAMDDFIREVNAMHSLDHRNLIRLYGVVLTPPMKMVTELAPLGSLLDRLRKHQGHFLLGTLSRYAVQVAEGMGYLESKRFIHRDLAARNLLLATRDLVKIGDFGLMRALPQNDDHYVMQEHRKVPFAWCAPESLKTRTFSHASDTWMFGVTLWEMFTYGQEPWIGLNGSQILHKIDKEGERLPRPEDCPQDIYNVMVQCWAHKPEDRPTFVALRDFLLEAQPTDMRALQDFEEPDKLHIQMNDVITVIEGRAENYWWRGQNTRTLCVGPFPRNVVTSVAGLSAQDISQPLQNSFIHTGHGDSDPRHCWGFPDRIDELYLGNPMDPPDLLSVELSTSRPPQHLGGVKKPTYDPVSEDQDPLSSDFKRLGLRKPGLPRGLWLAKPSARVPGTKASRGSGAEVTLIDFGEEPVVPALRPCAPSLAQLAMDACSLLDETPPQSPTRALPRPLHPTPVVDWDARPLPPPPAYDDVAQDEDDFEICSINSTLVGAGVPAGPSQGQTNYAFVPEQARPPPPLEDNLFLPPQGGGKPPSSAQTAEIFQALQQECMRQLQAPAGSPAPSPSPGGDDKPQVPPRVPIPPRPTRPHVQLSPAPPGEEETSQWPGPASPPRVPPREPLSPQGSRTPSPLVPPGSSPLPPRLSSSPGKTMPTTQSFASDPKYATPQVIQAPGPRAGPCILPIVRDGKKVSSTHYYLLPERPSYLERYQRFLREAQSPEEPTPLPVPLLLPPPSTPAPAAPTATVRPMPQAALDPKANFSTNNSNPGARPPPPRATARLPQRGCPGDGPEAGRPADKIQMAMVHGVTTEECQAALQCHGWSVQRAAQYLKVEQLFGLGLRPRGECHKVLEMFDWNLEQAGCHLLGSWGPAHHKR
Sequence of CAMK1 (human) (Q14012 whole entry, looked up): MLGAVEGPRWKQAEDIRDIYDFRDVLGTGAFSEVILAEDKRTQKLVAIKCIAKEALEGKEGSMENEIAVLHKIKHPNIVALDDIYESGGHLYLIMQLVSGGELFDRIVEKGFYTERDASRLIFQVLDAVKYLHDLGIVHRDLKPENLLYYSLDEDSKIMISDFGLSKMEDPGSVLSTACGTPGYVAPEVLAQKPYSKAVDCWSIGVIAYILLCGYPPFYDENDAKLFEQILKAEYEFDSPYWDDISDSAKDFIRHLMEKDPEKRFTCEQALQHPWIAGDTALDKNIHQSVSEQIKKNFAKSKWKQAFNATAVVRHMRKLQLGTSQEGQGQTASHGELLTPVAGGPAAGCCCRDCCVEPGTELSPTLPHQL

In the case of `O=C(c1ccccc1)c1ccc(N2CCOCC2)cc1O`, the residual activity (AKT1 (human)) is reported as 102%, the residual activity (CAMK1 (human)) is reported as 97.5% and the residual activity (CAMK1D (human)) is reported as 99.1%. The residual activity (CAMK2A (human)) was 105%, the residual activity (CAMK2B (human)) was 105% and the residual activity (CDC42BPA (human)) was 95.5%. The residual activity (CDK1 CCNB1 (human)) was 92.3%, the residual activity (CDK2 CCNA2 (human)) was 99.3% and the residual activity (CSNK1E (human)) was 97.7%. The residual activity (CSNK1G2 (human)) was 96.1%, the residual activity (CSNK2A1 (human)) was 91.1% and the residual activity (EPHA5 (human)) was 112%. It also gave a residual activity (EPHA7 (human)) of 98.4%, a residual activity (EPHB1 (human)) of 104% and a residual activity (FES (human)) of 95.2%. The residual activity (FGFR1 (human)) was 95.9%, the residual activity (FGFR4 (human)) was 106% and the residual activity (GRK5 (human)) was 105%. The residual activity (IGF1R (human)) was 106%, the residual activity (INSR (human)) was 92.9% and the residual activity (INSRR (human)) was 97.6%. For the same compound, the residual activity (MAP3K10 (human)) was 100%, the residual activity (MAP3K8 (human)) was 99.6% and the residual activity (MAPK12 (human)) was 100%. It also gave a residual activity (MAPK8 (human)) of 99.5%, a residual activity (MAPKAPK3 (human)) of 106% and a residual activity (MATK (human)) of 92.5%. The residual activity (PAK2 (human)) was 103%, the residual activity (PIM3 (human)) was 98.9% and the residual activity (PKN1 (human)) was 104%. It also gave a residual activity (PLK2 (human)) of 111%, a residual activity (PRKCG (human)) of 95.6% and a residual activity (RPS6KA4 KD2 (human)) of 105%. The residual activity (SRPK3 (human)) was 103%, the residual activity (STK11 (human)) was 104% and the residual activity (TAOK1 (human)) was 100%. The residual activity (TAOK3 (human)) was 99%, the residual activity (TNK2 (human)) was 104% and the residual activity [1] was 110%. The residual activity (WNK3 (human)) was 104% and the residual activity (ZAP70 (human)) was 95.9%.

Compound `COc1cc2c(Nc3ccc(Br)cc3F)ncnc2cc1OCC1CCN(C)CC1` has a residual activity (AKT1 (human)) of 94.7%, a residual activity (CAMK1 (human)) of 81.6% and a residual activity (CAMK1D (human)) of 90.6%. It also gave a residual activity (CAMK2A (human)) of 99.8%, a residual activity (CAMK2B (human)) of 98.2% and a residual activity (CDC42BPA (human)) of 83.7%. It also gave a residual activity (CDK1 CCNB1 (human)) of 102%, a residual activity (CDK2 CCNA2 (human)) of 94.6% and a residual activity (CSNK1G2 (human)) of 98.5%. It also gave a residual activity (CSNK2A1 (human)) of 112%, a residual activity (EPHA5 (human)) of 54.4% and a residual activity (EPHA7 (human)) of 31.8%. It also gave a residual activity (EPHB1 (human)) of 27.8%, a residual activity (EPHB4 (human)) of 13% and a residual activity (FES (human)) of 104%. The residual activity (FGFR4 (human)) was 90%, the residual activity (GRK5 (human)) was 95.8% and the residual activity (IGF1R (human)) was 94.6%. The residual activity (INSR (human)) was 102%, the residual activity (INSRR (human)) was 105% and the residual activity (MAP3K10 (human)) was 102%. For the same compound, the residual activity (MAP3K8 (human)) was 97.3%, the residual activity (MAPK12 (human)) was 92.6% and the residual activity (MAPK8 (human)) was 93.7%. The residual activity (MAPKAPK3 (human)) was 98.5%, the residual activity (MATK (human)) was 101% and the residual activity (PAK2 (human)) was 103%. It also gave a residual activity (PIM3 (human)) of 96.1%, a residual activity (PKN1 (human)) of 103% and a residual activity (PLK2 (human)) of 103%. For the same compound, the residual activity (PRKCG (human)) was 93.2%, the residual activity (RPS6KA4 KD2 (human)) was 110% and the residual activity (SRPK3 (human)) was 102%. For the same compound, the residual activity (STK11 (human)) was 105%, the residual activity (TAOK1 (human)) was 103% and the residual activity (TAOK3 (human)) was 98.4%. For the same compound, the residual activity (TNK2 (human)) was 85.4%, the residual activity [1] was 97.7% and the residual activity (WNK3 (human)) was 98%. It also gave a residual activity (ZAP70 (human)) of 96.8%.
